The record followed here is patent US7161032B2, “Sulfonamide derivatives, insecticides for agricultural and horticultural use, and usage thereof” (Nihon Nohyaku Co., Ltd., priority 2002, dated 2007).

Holding throughout (type): in vivo
For test [1], the system named is Diamond Back Moth (Plutella xylostella). Description: Insecticidal effect on diamond back moth (Test Example 1): egg-bearing Chinese cabbage seedling immersed in 50 ppm liquid chemical. As for the experimental part:
Adult diamond back moths were released and allowed to oviposit on a Chinese cabbage seedling. Two days after the release, the seedling having the eggs deposited thereon was immersed for about 30 seconds in a liquid chemical prepared by diluting a preparation containing each compound listed in Table 1 or 2 as an active ingredient to adjust the concentration to 50 ppm. After air-dryness, it was allowed to stand in a room thermostated at 25° C. Six days after the immersion, the hatched insects were counted. The mortality was calculated according to the following equation and the insecticidal effect was judged according to the criterion shown below. The test was carried out with triplicate groups of 10 insects. [formula]

Test [2] has as its system Common Cutworm (Spodoptera litura). Put plainly: Insecticidal effect on common cutworm (Test Example 2): cabbage leaf piece immersed in 50 ppm liquid chemical. To be noted: common cutworm (Spodoptera litura) second-instar larvae, 8 days after inoculation, 25° C. As for the experimental part: A piece of cabbage leaf (cultivar: Shikidori) was immersed for about 30 seconds in a liquid chemical prepared by diluting a preparation containing each compound listed in Table 1 or 2 as an active ingredient to adjust the concentration to 50 ppm. After air-dryness, it was placed in a plastic Petri dish with a diameter of 9 cm and inoculated with second-instar larvae of common cutworm, after which the dish was closed and then allowed to stand in a room thermostated at 25° C. Eight days after the inoculation, the dead and alive were counted. The mortality was calculated according to the following equation and the insecticidal effect was judged according to the criterion shown in Test Example 1. The test was carried out with triplicate groups of 10 insects. [formula]

Test [3] concerns Smaller Tea Tortrix (Adoxophyes sp.). Description: Insecticidal effect on smaller tea tortrix (Test Example 3): tea leaves immersed in 50 ppm liquid chemical. To be noted: smaller tea tortrix (Adoxophyes sp.) larvae, 8 days after inoculation, 25° C., humidity 70%. As for the experimental part:
Tea leaves were immersed for about 30 seconds in a liquid chemical prepared by diluting a preparation containing each compound listed in Table 1 or 2 as an active ingredient to adjust the concentration to 50 ppm. After air-dryness, the tea leaves were placed in a plastic Petri dish with a diameter of 9 cm and inoculated with larvae of smaller tea tortrix, after which the dish was allowed to stand in a room thermostated at 25° C. and having a humidity of 70%. Eight days after the inoculation, the dead and alive were counted and the insecticidal effect was judged according to the criterion shown in Test Example 1. The test was carried out with triplicate groups of 10 insects.

Each structure is given as a SMILES string.

In the case of `Cc1cc(C(F)(C(F)(F)F)C(F)(F)F)ccc1NC(=O)c1cccc(I)c1C(=O)NC(C)CS(N)(=O)=O` (stereo not shown) [1-1], the “Insecticidal effect (mortality grade), Test Example 1” value (shortened to “Insecticidal effect … Test Example 1”) in test [1] is “A (Mortality 100%)”. In addition, the “Insecticidal effect (mortality grade), Test Example 2” value (from here on “Insecticidal effect … Test Example 2”) in test [2] is reported as “A (Mortality 100%)”. Further, the “Insecticidal effect (mortality grade), Test Example 3” value (“Insecticidal effect … Test Example 3” for short) in test [3] is reported as “A (Mortality 100%)”.
Turning to `CNS(=O)(=O)CC(C)NC(=O)c1c(I)cccc1C(=O)Nc1ccc(C(F)(C(F)(F)F)C(F)(F)F)cc1C` (stereo not shown) [1-2], the “Insecticidal effect … Test Example 1” value in test [1] was “A (Mortality 100%)”. Besides, in test [2], the “Insecticidal effect … Test Example 2” value is on record as “A (Mortality 100%)”. Besides, the “Insecticidal effect … Test Example 3” value in test [3] is “A (Mortality 100%)”.
As for `Cc1cc(C(F)(C(F)(F)F)C(F)(F)F)ccc1NC(=O)c1cccc(I)c1C(=O)NC(C)CS(=O)(=O)N(C)C` (stereo not shown) [1-3], the “Insecticidal effect … Test Example 1” value in test [1] was “A (Mortality 100%)”. The “Insecticidal effect … Test Example 2” value in test [2] is reported as “A (Mortality 100%)”. Besides, in test [3], the “Insecticidal effect … Test Example 3” value is recorded as “A (Mortality 100%)”.
With `CCNS(=O)(=O)CC(C)NC(=O)c1c(I)cccc1C(=O)Nc1ccc(C(F)(C(F)(F)F)C(F)(F)F)cc1C` (stereo not shown) [1-4, N^2-(2-ethylsulfamoyl-1-methylethyl)-3-iodo-N^1-{2-methyl-4-[1,2,2,2-tetrafluoro-1-(trifluoromethyl)ethyl]phenyl}phthalamide], in test [1], the “Insecticidal effect … Test Example 1” value is reported as “A (Mortality 100%)”. Also, in test [2], the “Insecticidal effect … Test Example 2” value is “A (Mortality 100%)”. Further, the “Insecticidal effect … Test Example 3” value in test [3] is recorded as “A (Mortality 100%)”.
Regarding `CCN(CC)S(=O)(=O)CC(C)NC(=O)c1c(I)cccc1C(=O)Nc1ccc(C(F)(C(F)(F)F)C(F)(F)F)cc1C` (stereo not shown) [1-6], the “Insecticidal effect … Test Example 1” value in test [1] is “A (Mortality 100%)”. Moreover, the “Insecticidal effect … Test Example 2” value in test [2] is “A (Mortality 100%)”. In addition, the “Insecticidal effect … Test Example 3” value in test [3] is “A (Mortality 100%)”.
For `CCCNS(=O)(=O)CC(C)NC(=O)c1c(I)cccc1C(=O)Nc1ccc(C(F)(C(F)(F)F)C(F)(F)F)cc1C` (stereo not shown) [1-7], the “Insecticidal effect … Test Example 1” value in test [1] is on record as “A (Mortality 100%)”. For the same compound, the “Insecticidal effect … Test Example 2” value in test [2] is on record as “A (Mortality 100%)”. For the same compound, in test [3], the “Insecticidal effect … Test Example 3” value is “A (Mortality 100%)”.
`Cc1cc(C(F)(C(F)(F)F)C(F)(F)F)ccc1NC(=O)c1cccc(I)c1C(=O)NC(C)CS(=O)(=O)NC(C)C` (stereo not shown) [1-8]: the “Insecticidal effect … Test Example 1” value in test [1] is given as “A (Mortality 100%)”. Moreover, the “Insecticidal effect … Test Example 2” value in test [2] is recorded as “A (Mortality 100%)”. Besides, the “Insecticidal effect … Test Example 3” value in test [3] is “A (Mortality 100%)”.
Turning to `CCCCNS(=O)(=O)CC(C)NC(=O)c1c(I)cccc1C(=O)Nc1ccc(C(F)(C(F)(F)F)C(F)(F)F)cc1C` (stereo not shown) [1-12], the “Insecticidal effect … Test Example 1” value in test [1] is given as “A (Mortality 100%)”. For the same compound, the “Insecticidal effect … Test Example 2” value in test [2] was “A (Mortality 100%)”. Besides, the “Insecticidal effect … Test Example 3” value in test [3] is recorded as “A (Mortality 100%)”.
Consider `Cc1cc(C(F)(C(F)(F)F)C(F)(F)F)ccc1NC(=O)c1cccc(I)c1C(=O)NC(C)CS(=O)(=O)NC(C)(C)C` (stereo not shown) [1-14], for which the “Insecticidal effect … Test Example 1” value in test [1] was “A (Mortality 100%)”. In addition, the “Insecticidal effect … Test Example 2” value in test [2] is “A (Mortality 100%)”. Further, the “Insecticidal effect … Test Example 3” value in test [3] is reported as “A (Mortality 100%)”.
Consider `C=CCNS(=O)(=O)CC(C)NC(=O)c1c(I)cccc1C(=O)Nc1ccc(C(F)(C(F)(F)F)C(F)(F)F)cc1C` (stereo not shown) [1-20], for which the “Insecticidal effect … Test Example 1” value in test [1] is given as “A (Mortality 100%)”. For the same compound, in test [2], the “Insecticidal effect … Test Example 2” value is on record as “A (Mortality 100%)”. In test [3], the “Insecticidal effect … Test Example 3” value is recorded as “A (Mortality 100%)”.
With `C#CCNS(=O)(=O)CC(C)NC(=O)c1c(I)cccc1C(=O)Nc1ccc(C(F)(C(F)(F)F)C(F)(F)F)cc1C` (stereo not shown) [1-21], in test [1], the “Insecticidal effect … Test Example 1” value is “A (Mortality 100%)”. The “Insecticidal effect … Test Example 2” value in test [2] was “A (Mortality 100%)”. In test [3], the “Insecticidal effect … Test Example 3” value is reported as “A (Mortality 100%)”.
Turning to `Cc1cc(C(F)(C(F)(F)F)C(F)(F)F)ccc1NC(=O)c1cccc(I)c1C(=O)NC(C)CS(=O)(=O)NCc1ccccc1` (stereo not shown) [1-22], the “Insecticidal effect … Test Example 1” value in test [1] was “A (Mortality 100%)”. The “Insecticidal effect … Test Example 2” value in test [2] is “A (Mortality 100%)”. Moreover, in test [3], the “Insecticidal effect … Test Example 3” value is “A (Mortality 100%)”.
For `Cc1cc(C(F)(C(F)(F)F)C(F)(F)F)ccc1NC(=O)c1cccc(I)c1C(=O)NC(C)CS(=O)(=O)NCc1ccccc1F` (stereo not shown) [1-23], the “Insecticidal effect … Test Example 1” value in test [1] is given as “A (Mortality 100%)”. Further, the “Insecticidal effect … Test Example 2” value in test [2] is reported as “A (Mortality 100%)”. Besides, the “Insecticidal effect … Test Example 3” value in test [3] is on record as “A (Mortality 100%)”.
As to `Cc1cc(C(F)(C(F)(F)F)C(F)(F)F)ccc1NC(=O)c1cccc(I)c1C(=O)NC(C)CS(=O)(=O)NCc1ccccc1Cl` (stereo not shown) [1-24], the “Insecticidal effect … Test Example 1” value in test [1] is recorded as “A (Mortality 100%)”. Moreover, in test [2], the “Insecticidal effect … Test Example 2” value is “A (Mortality 100%)”. Further, the “Insecticidal effect … Test Example 3” value in test [3] is given as “A (Mortality 100%)”.
`Cc1cc(C(F)(C(F)(F)F)C(F)(F)F)ccc1NC(=O)c1cccc(I)c1C(=O)NC(C)CS(=O)(=O)NCc1ccccc1Br` (stereo not shown) [1-25]: in test [1], the “Insecticidal effect … Test Example 1” value is reported as “A (Mortality 100%)”. The “Insecticidal effect … Test Example 2” value in test [2] is “A (Mortality 100%)”. Also, the “Insecticidal effect … Test Example 3” value in test [3] was “A (Mortality 100%)”.
For `COc1ccccc1CNS(=O)(=O)CC(C)NC(=O)c1c(I)cccc1C(=O)Nc1ccc(C(F)(C(F)(F)F)C(F)(F)F)cc1C` (stereo not shown) [1-27], the “Insecticidal effect … Test Example 1” value in test [1] was “A (Mortality 100%)”. The “Insecticidal effect … Test Example 2” value in test [2] is given as “A (Mortality 100%)”. For the same compound, the “Insecticidal effect … Test Example 3” value in test [3] is “A (Mortality 100%)”.
`Cc1cc(C(F)(C(F)(F)F)C(F)(F)F)ccc1NC(=O)c1cccc(I)c1C(=O)NC(C)CS(=O)(=O)NCc1ccccc1[N+](=O)[O-]` (stereo not shown) [1-28]: the “Insecticidal effect … Test Example 1” value in test [1] is recorded as “A (Mortality 100%)”. The “Insecticidal effect … Test Example 2” value in test [2] is recorded as “A (Mortality 100%)”. The “Insecticidal effect … Test Example 3” value in test [3] is “A (Mortality 100%)”.
In the case of `COc1cccc(CNS(=O)(=O)CC(C)NC(=O)c2c(I)cccc2C(=O)Nc2ccc(C(F)(C(F)(F)F)C(F)(F)F)cc2C)c1` (stereo not shown) [1-29], the “Insecticidal effect … Test Example 1” value in test [1] is “A (Mortality 100%)”. In addition, the “Insecticidal effect … Test Example 2” value in test [2] is recorded as “A (Mortality 100%)”. For the same compound, the “Insecticidal effect … Test Example 3” value in test [3] is reported as “A (Mortality 100%)”.
Consider `Cc1cc(C(F)(C(F)(F)F)C(F)(F)F)ccc1NC(=O)c1cccc(I)c1C(=O)NC(C)CS(=O)(=O)NCc1cccc([N+](=O)[O-])c1` (stereo not shown) [1-30], for which the “Insecticidal effect … Test Example 1” value in test [1] is recorded as “A (Mortality 100%)”. The “Insecticidal effect … Test Example 2” value in test [2] is “A (Mortality 100%)”. In addition, the “Insecticidal effect … Test Example 3” value in test [3] is “A (Mortality 100%)”.
As to `Cc1cc(C(F)(C(F)(F)F)C(F)(F)F)ccc1NC(=O)c1cccc(I)c1C(=O)NC(C)CS(=O)(=O)NCc1cccc(C#N)c1` (stereo not shown) [1-31], in test [1], the “Insecticidal effect … Test Example 1” value was “A (Mortality 100%)”. Besides, the “Insecticidal effect … Test Example 2” value in test [2] is given as “A (Mortality 100%)”. In test [3], the “Insecticidal effect … Test Example 3” value was “A (Mortality 100%)”.
`COc1cccc(OC)c1CNS(=O)(=O)CC(C)NC(=O)c1c(I)cccc1C(=O)Nc1ccc(C(F)(C(F)(F)F)C(F)(F)F)cc1C` (stereo not shown) [1-32]: the “Insecticidal effect … Test Example 1” value in test [1] is “A (Mortality 100%)”. In test [2], the “Insecticidal effect … Test Example 2” value is “A (Mortality 100%)”. The “Insecticidal effect … Test Example 3” value in test [3] is “A (Mortality 100%)”.
Regarding `COc1ccc(CNS(=O)(=O)CC(C)NC(=O)c2c(I)cccc2C(=O)Nc2ccc(C(F)(C(F)(F)F)C(F)(F)F)cc2C)cc1` (stereo not shown) [1-35], the “Insecticidal effect … Test Example 1” value in test [1] is listed as “A (Mortality 100%)”. For the same compound, the “Insecticidal effect … Test Example 2” value in test [2] is “A (Mortality 100%)”. Besides, the “Insecticidal effect … Test Example 3” value in test [3] is “A (Mortality 100%)”.
For the compound `Cc1cc(C(F)(C(F)(F)F)C(F)(F)F)ccc1NC(=O)c1cccc(I)c1C(=O)NC(C)CS(=O)(=O)NCc1ccc([N+](=O)[O-])cc1` (stereo not shown) [1-36], in test [1], the “Insecticidal effect … Test Example 1” value is “A (Mortality 100%)”. Besides, in test [2], the “Insecticidal effect … Test Example 2” value is given as “A (Mortality 100%)”. For the same compound, the “Insecticidal effect … Test Example 3” value in test [3] is listed as “A (Mortality 100%)”.
Consider `Cc1cc(C(F)(C(F)(F)F)C(F)(F)F)ccc1NC(=O)c1cccc(I)c1C(=O)NC(C)CS(=O)(=O)NCc1ccc(C#N)cc1` (stereo not shown) [1-37], for which the “Insecticidal effect … Test Example 1” value in test [1] was “A (Mortality 100%)”. For the same compound, the “Insecticidal effect … Test Example 2” value in test [2] is recorded as “A (Mortality 100%)”. Moreover, in test [3], the “Insecticidal effect … Test Example 3” value is “A (Mortality 100%)”.
As to `CCNS(=O)(=O)CC(C)NC(=O)c1c(I)cccc1C(=O)Nc1ccc(C(F)(C(F)(F)F)C(F)(F)F)cc1C` (stereo not shown) [1-142], the “Insecticidal effect … Test Example 3” value in test [3] was “A (Mortality 100%)”.
